The values below come from publication PMC10975076, “Trypanocidal and Anti-Inflammatory Effects of Three ent-Kaurane Diterpenoids from Gymnocoronis spilanthoides var. subcordata (Asteraceae)” (Pharmaceutics, 2024).

Data set [1] relates to T. cruzi epimastigotes (RA strain). In words: In vitro activity against epimastigotes, [3H]-thymidine uptake assay. Type of data set: cell-based. The settings on record: Trypanosoma cruzi.
In data set [2] the test system is T. cruzi amastigotes (Tulahuen strain expressing β-galactosidase). In words: In vitro activity against amastigotes in infected Vero cells, β-galactosidase/CPRG readout. Type of data set: cell-based. The settings on record: Trypanosoma cruzi, 120 h, intracellular amastigotes in Vero cells, 5 days. The method, then: Cultures of Trypanosoma cruzi epimastigotes (RA strain) were maintained through weekly passages in LIT medium supplemented with 10% fetal bovine serum at 28 °C. Trypanosoma cruzi bloodstream trypomastigotes (RA strain) were obtained from infected CF1 mice by cardiac puncture 15 days after infection at the peak of parasitemia while transfected trypomastigotes expressing β-galactosidase (Clone C4, e Tulahuen strain) were obtained from infected Vero cells.
The activity of compounds 1–3 on the intracellular forms of T. cruzi was evaluated. Vero cells (5 × 10^3/well) were infected with culture-derived trypomastigotes of T. cruzi from the Tulahuen strain expressing β-galactosidase (MOI: 10). After an O.N. incubation at 37 °C, and 5% CO2, non-infecting parasites were washed out and infected cells were incubated with increasing concentrations of the compounds (0.001–50 µg/mL). Cells treated with DMSO or benznidazole and non-infected cells were included as controls. After 5 days, cells were lysed with 1% Nonidet P-40, and chlorophenol red-β-D-galactopyranoside (CPRG) (100 μM) was added as a substrate for the β-galactosidase enzyme. The plate was then incubated for 4 h at 37 °C and β-galactosidase activity was determined by measuring the absorbance at 570 nm. The percentage of inhibition for each concentration of compounds was calculated as: 100 − {[(absorbance of treated infected cells)/(absorbance of untreated infected cells)] × 100}.

Data set [3] is described as follows: Cytotoxicity assay on splenocytes, propidium iodide flow cytometry. The data set is classed as cell-based, mice. As to conditions: BALB/c, mouse, murine splenocytes. The protocol: The cytotoxicity of the isolated compounds was evaluated using splenocytes obtained from BALB/c mice. Primary cell cultures (1.5 × 10^5) were incubated with different concentrations of the isolated phytochemicals (5–200 μg/mL) in RPMI medium supplemented with 10% fetal bovine serum. After 48 h of incubation at 37 °C (5% CO2), the cells were harvested, washed once with PBS and stained with 2.5 μg/mL propidium iodide (PI) for 5 min at room temperature. Subsequently, cell death was assessed via flow cytometry using a BD FACSaria II cytometer. Cells incubated with DMSO were used as 100% viability control, and the death percentage was calculated according to the following formula: {1 − [(% PI^− cells treated)/(% PI^− cells of the viability control)] × 100}.
(A flow cytometer gives signals particle by particle.)

For another data set, the system named is T. cruzi epimastigotes. As to the kind of experiment: Transmission electron microscopy of treated epimastigotes. As to conditions: 20 µM. The data set is classed as cell-based, Trypanosoma cruzi. The method, then:
All procedures were carried out according to Brengio et al.. Epimastigotes from T. cruzi were treated with 20 µM of compound 1 for either 48 h or 72 h. Then, the parasites were centrifuged at 1000× g for 10 min and fixed with 2.5% glutaraldehyde. Subsequently, they were washed three times with PBS and postfixed overnight with 2% OsO4. After washing twice with PBS, cells were stained with 1% uranyl acetate. The samples were dehydrated sequentially in ethanol and acetone and embedded in Epon 812. Ultrathin slices of 60 nm were obtained using an automatic Leica-ultracut R ultramicrotome and observed with a Microscope Zeiss EM900 (Zeiss, Oberkochen, Germany).

Data set [4] has as its system type-I Interferon (IFN) pathway, RAW-Lucia ISG cells. In words: Type-I interferon reporter assay in RAW-Lucia ISG cells, Lucia luciferase. Type of data set: cell-based, murine. As to conditions: 24 h. The protocol: The effect of compound 1 on a type-I Interferon (IFN) reporter cell line stimulated with LPS was studied. RAW-Lucia cells express the Lucia luciferase enzyme under the control of the ISG54 promoter that responds to an IFN-stimulated response element, which is activated by several Interferon Regulatory Factors (IRFs).
RAW-Lucia ISG cells I (InvivoGen, San Diego, CA, USA) (100 μL) were cultured (100,000 cells/well) with DMEM at 37 °C in a 5% CO2 atmosphere to be stimulated with LPS (0.5 µg/mL) or a combination of LPS and compound 1 (1 and 10 µg/mL). Unstimulated cells were included as controls. After a 24 h incubation, the supernatants of each well were collected in order to quantify the luciferase activity by measuring the luminescence generated after the addition of the QUANTI-Luc reagent (InvivoGen) according to the manufacturer’s instructions with a PerkinElmer Victor3 luminometer.
Background: Reporter assays use an easily measured gene product as a stand-in for the process of interest.

Another data set deals with NF-kB, RAW-Blue cells. In words: NF-kB reporter assay in RAW-Blue cells, SEAP activity. The settings on record: 24 h. Type of data set: cell-based, murine. The method, then:
The effect of compound 1 was evaluated on a cell line that secretes alkaline phosphatase as a surrogate marker for the secretion of NF-kB. RAW-Blue cells (InvivoGen) (100 μL) were seeded in a 96-well plate (100,000 cells/well) with DMEM at 37 °C in a 5% CO2 atmosphere. […] Untreated cells were included as controls. The supernatants were collected and absorbance at 620–655 nm was measured after the addition of the Quanti-Blue reagent (InvivoGen) in a microplate reader. Levels of NF-kB were calculated following the manufacturer’s instructions.

For data set [5], the system named is nitric oxide production, Raw-Blue cells. As to the kind of experiment: Nitric oxide production, Griess reaction on RAW-Blue supernatants. Type of data set: cell-based, murine. The protocol:
The Griess reaction assay was performed to determine the effect of compound 1 on Nitric Oxide production. The same supernatant samples obtained in Section 2.8.2 (50 µL) were combined with 100 µL of Griess reagent. After incubation at room temperature for 30 min, absorbance was measured at 540 nm. A calibration curve was constructed with 1–250 µM of […] to extrapolate the nitrite concentration in the tested samples.
A general note: The Griess reaction detects nitrite, a stable product of nitric oxide.

Data set [6] concerns TNF secretion, Raw-Blue macrophages. As to the kind of experiment: TNF in RAW-Blue supernatants, capture ELISA. The data set is classed as cell-based, murine. The settings on record: 24 h. The protocol: (§1) The production of the cytokines IL-10 and TNF was also determined in cell supernatant from these samples with an ELISA assay (R&D System, Minneapolis, MN, USA; BD Pharmingen, Franklin Lakes, NJ, USA).

Data set [7] deals with IL-10 production, Raw-Blue macrophages. In words: IL-10 in RAW-Blue supernatants, ELISA. The settings on record: increasing concentrations (1, 10 µg/mL), 24 h, dose-dependent. Type of data set: cell-based, murine. The method, then: as §1
Data set [8] deals with T. cruzi (RA strain) infection in BALB/c mice. As to the kind of experiment: In vivo trypanocidal activity in murine model of T. cruzi infection. As to conditions: for Hazard ratio (logrank) vs vehicle: Kaplan–Meier survival; for decrease in the area under the parasitemia curve (AUC): fold vs untreated control group. The arrangement: species or system Trypanosoma cruzi.
The subject of data set [9] is iNOS expression and NO production. More on the design: method as in doi:10.7324/JAPS.2023.95766. As to conditions: cited from earlier work.
The mark [10] stands for this setting: T. cruzi epimastigotes, 72 h incubation, read-out: IC50 ± SEM Epimastigotes.
Where [11] appears, read: T. cruzi epimastigotes, 72 h incubation, value in brackets, read-out: IC50 Epimastigotes (converted).
Where [12] appears, read: read-out: IC50 ± SEM Amastigotes.
The mark [13] stands for this setting: value in brackets, read-out: IC50 Amastigotes (converted).
The mark [14] stands for this setting: primary splenocytes, read-out: CC50 µg/mL ± SEM.
Setting [15] is: primary splenocytes, read-out: CC50.
Where [16] appears, read: LPS 0.5 µg/mL, 1 or 10 µg/mL compound.
The mark [17] stands for this setting: infected BALB/c mice, 1 mg/kg/day i.p. each for 5 days.

Like-named read-outs stand apart in the source and are kept apart here.

One may read the IC50 as the concentration that gives 50% inhibition. As to `C=C1C(=O)[C@@]23CC[C@@H]4[C@](C)(C(=O)O)CCC[C@@]4(C)[C@]2(O)[C@@H](O)C[C@@H]1C3` (single isomer, unassigned; ent-9) [Compound 1, ent-9α,11α-dihydroxy-15-oxo-kaur-16-en-19-oic acid], the IC50 in data set [1] (setting [10]) was 3.7 ± 0.5 mg/L; in data set [1] (setting [11]), 10.6 µM; in data set [2] (setting [12]), 2.1 ± 0.3 mg/L; in [2] (setting [13]), 6.1 µM. In addition, the CC50 at 48 h worked out at 112 ± 3.4 µg/mL in data set [3] (setting [14]) and 322 µM in data set [3] (setting [15]). Moreover, the results for the “ultrastructural effect on epimastigotes (TEM)” value in the data set on T. cruzi epimastigotes (48 h) and in the data set with T. cruzi epimastigotes (72 h) were “formation of abnormal cytosolic membranous structures” and “Abnormal cytosolic membranous structures”, respectively. Further, the “Lucia luciferase activity after LPS stimulation” value in data set [4] (setting [16]) is “reduction in enzymatic activity”. Further, the “basal Lucia luciferase activity” value in data set [4] (unstimulated control cells, 1 or 10 µg/mL) was “did not affect the basal levels of Lucia luciferase activity”. Also, in the data set with NF-kB, RAW-Blue cells (CpG 100 µg/mL, Poly(I:C) 100 µg/mL or LPS 0.5 µg/mL, compound 2.5 µg/mL), the “NF-kB activation by TLR agonists (SEAP activity)” value is given as “significantly inhibit NF-kB activation”. In the data set on NF-kB, RAW-Blue cells (setting [16]), the “LPS-mediated activation of NF-kB (SEAP activity)” value was “dose-dependent inhibition”. The “nitric oxide production (nitrite) with TLR ligands” value in [5] (CpG 100 µg/mL, Poly(I:C) 100 µg/mL or LPS 0.5 µg/mL, compound 2.5 µg/mL, 24 h) is “significant decrease in nitric oxide production”. Further, in data set [5] (LPS-stimulated Raw-Blue macrophages, dose-dependent), the “nitric oxide production (nitrite levels) after LPS” value was “significantly inhibited nitric oxide production”. For the same molecule, in [6] (LPS 0.5 µg/mL, 1 and 10 µg/mL compound), the “TNF levels after LPS stimulation” value is “significantly reduced”. Also, the “basal levels of TNF” value in data set [6] (without LPS, increasing concentrations (1, 10 µg/mL)) is reported as “significant decrease in the basal levels of TNF”. The “IL-10 production and secretion” value in data set [7] is “increase in the production and secretion of IL-10”. Moreover, the “Hazard ratio (logrank) vs vehicle” value in [8] (1 mg/kg/day i.p. for 5 days) is on record as 0.9. The “decrease in the area under the parasitemia curve (AUC)” value in data set [8] (setting [17]) is recorded as “two-fold”. In addition, the parasitemia levels entry in [8] (infected BALB/c mice, 1 mg/kg/day i.p. for 5 days, vs vehicle) is on record as “significant decrease in parasitemia levels”. In addition, the “iNOS expression and NO production in vitro” value in data set [9] is “inhibit iNOS expression and NO production”.

Turning to `C=C1C(=O)[C@@]23CC[C@H]4[C@@](C)(CCC[C@@]4(C)C(=O)O)[C@@H]2[C@@H](O)C[C@@H]1C3` (single isomer, unassigned; ent-11) [Compound 3, ent-11α-hydroxy-15-oxo-kaur-16-en-19-oic acid], the IC50 in [1] (setting [10]) is 1.6 ± 0.6 mg/L; in data set [1] (setting [11]), 4.8 µM; in data set [2] (setting [12]), 20.1 ± 8.2 mg/L; in data set [2] (setting [13]) it was 60.6 µM. Besides, the CC50 at 48 h was 4.9 ± 1.6 µg/mL in data set [3] (read-out: CC50 µg/mL ± SEM) and 14.8 µM in data set [3] (read-out: CC50).

`O=C(Cn1ccnc1[N+](=O)[O-])NCc1ccccc1` [Benznidazole, benznidazole, reference compound]: the IC50 in data set [1] (72 h, read-out: IC50 Epimastigotes) is 4.2 µM; in [1] (72 h, read-out: IC50 ± SEM Epimastigotes), 1.08 ± 0.2 mg/L; in [2] (setting [12]), 0.5 ± 0.04 mg/L; in data set [2] (setting [13]) it was 1.9 µM. Also, the CC50 at 48 h was found to be 45.3 ± 1.8 µg/mL in data set [3] (setting [14]) and 81.5 µM in data set [3] (setting [15]). In addition, the “mice remaining alive at the end of the acute infection phase” value in data set [8] (1 mg/kg/day i.p. each for 5 days) is given as “none”. In [8] (1 mg/kg/day i.p. for 5 days), the “Hazard ratio (logrank) vs vehicle” value was determined as 1.1. For the same molecule, the “decrease in the area under the parasitemia curve (AUC)” value in [8] (setting [17]) amounted to 1.6.

As for `C[C@H]1C(=O)[C@@]23CC[C@H]4[C@@](C)(CCC[C@@]4(C)C(=O)O)[C@@H]2[C@@H](O)C[C@@H]1C3` [Compound 2, (16R)-ent-11α-hydroxy-15-oxokauran-19-oic acid], the half-inhibitory concentration (IC50) was 5.2 ± 0.3 mg/L in data set [1] (setting [10]), 15.9 µM in data set [1] (setting [11]), 6.5 ± 0.2 mg/L in [2] (setting [12]) and 19.5 µM in [2] (setting [13]). The CC50 at 48 h in [3] (setting [14]) was 7.8 ± 0.2 µg/mL; in [3] (setting [15]), 23.3 µM.
